Converted amounts (≈) assume the structure as drawn.
What was measured:
HIV-1 = experiment: in-vitro anti-HIV assay: inhibition of HIV-induced cytopathic effect in MT-4 cells (MTT); type: cell-based; conditions: for SI (selectivity index, ratio of CD50 to ED50): CD50/ED50, MT-4 cells; for EC50: Human immunodeficiency virus 1, MT4, read-out: ED50 (50% effective dose)
Description: (§1) A rapid, sensitive and automated assay procedure was used for the in-vitro evaluation of anti-HIV agents. An […] T4-cell line, MT-4, which was previously shown Koyanagi et al., Int. J. Cancer, , 36, 445-451, 1985) to be highly susceptible to and permissive for HIV infection, served as the target cell line. Inhibition of the HIV-induced cytopathic effect was used as the end point. The viability of both HIV- and mock-infected cells was assessed spectrophotometrically via the in-situ reduction of 3-(4,5-dimethylthiazol-2-yl)-2,5-diphenyltetrazolium bromide (MTT). The 50% cytotoxic dose (CD50 in μg/ml) was defined as the concentration of compound that reduced the absorbance of the mock-infectedcontrol sample by 50%. The percent protection achieved by the compound in HIV-infected cells was calculated by the following formula: [formula] whereby (ODT)HIV is the optical density measured with a given concentration of the test compound in HIV-infected cells; (ODC)HIV is the optical density measured for the control untreated HIV-infected cells; (ODC)MOCK is the optical density means for the control untreated mock-infected cells; all optical density values were determined at 540 nm. The dose achieving 50% protection according to the above formula was defined as the 50% effective dose […]). The ratio of CD50 to ED50 was defined as the selectivity index (SI).

in vitro = type: cell-based; conditions: human, mt-4 cells
Description: as §1

Q: For NC(=O)C(Nc1ncccc1[N+](=O)[O-])c1c(Cl)cccc1Cl (racemic) [compound 1, (±)-2,6-dichloro-α-[(3-nitro-2-pyridinyl)amino]benzeneacetamide], which “SI (selectivity index, ratio of CD50 to ED50)” value (HIV-1) is on record?
A: The value was 1299.

Q: And the EC50 (HIV-1)?
A: The EC50 was 0.03 µg/mL (≈ 0.0879 µM).

Q: What about the CC50 (in vitro) of the same molecule?
A: Its CC50 is 35.8 µg/mL (≈ 105 µM).

Q: What does the source list for NC(=O)C(Nc1ccc[nH]c1=O)c1c(Cl)cccc1Cl (racemic) [compound 8, (±)-2,6-dichloro-α-[(1,2-dihydro-2-oxo-3-pyridinyl)amino]benzeneacetamide]?
A: SI (selectivity index, ratio of CD50 to ED50) (HIV-1): 1181; EC50 (HIV-1): 0.18 µg/mL (≈ 0.577 µM); CC50 (in vitro): 217 µg/mL (≈ 696 µM)

Q: With CC(=O)c1cccnc1NC(C)c1c(Cl)cccc1Cl (racemic) [compound 11, (±)-1-[2-[[1-(2,6-dichlorophenyl)ethyl]amino]-3-pyridinyl]ethanone] as the molecule, how does the “SI (selectivity index, ratio of CD50 to ED50)” value (HIV-1) read?
A: Its value is 463.

Q: What about the EC50 (HIV-1) of the same molecule?
A: Its EC50 is 0.068 µg/mL (≈ 0.22 µM).

Q: What about the CC50 (in vitro) of the same molecule?
A: The CC50 was 31.4 µg/mL (≈ 102 µM).

Q: Which “SI (selectivity index, ratio of CD50 to ED50)” value (HIV-1) does the source give for N#Cc1cccnc1NC(C(N)=O)c1c(Cl)cccc1Cl (stereo not drawn) [compound 2] here?
A: Its value is 243.

Q: What about the EC50 (HIV-1) of the same molecule?
A: The EC50 was 0.1 µg/mL (≈ 0.311 µM).

Q: What about the CC50 (in vitro) of the same molecule?
A: The CC50 was 25.3 µg/mL (≈ 78.8 µM).

Q: Which “SI (selectivity index, ratio of CD50 to ED50)” value (HIV-1) does the source give for CCn1nc(C)c([N+](=O)[O-])c1NC(C(N)=O)c1c(Cl)cccc1Cl (stereo not drawn) [compound 3] here?
A: Its value is 61.

Q: What about the EC50 (HIV-1) of the same molecule?
A: The EC50 was 2 µg/mL (≈ 5.37 µM).

Q: What about the CC50 (in vitro) of the same molecule?
A: The CC50 was 122 µg/mL (≈ 327 µM).

Q: With CC(=O)c1nccnc1NC(C(N)=O)c1c(Cl)cccc1Cl (stereo not drawn) [compound 7] as the molecule, how does the “SI (selectivity index, ratio of CD50 to ED50)” value (HIV-1) read?
A: The value was 41.5.

Q: What about the EC50 (HIV-1) of the same molecule?
A: Its EC50 is 3.8 µg/mL (≈ 11.2 µM).

Q: And the CC50 (in vitro)?
A: Its CC50 is 157 µg/mL (≈ 462 µM).

Q: For CC(=O)c1nccnc1NC(C)c1c(Cl)cccc1Cl (stereo not drawn) [compound 12], which “SI (selectivity index, ratio of CD50 to ED50)” value (HIV-1) is on record?
A: The value was 289.

Q: What about the EC50 (HIV-1) of the same molecule?
A: Its EC50 is 0.013 µg/mL (≈ 0.0419 µM).

Q: What about the CC50 (in vitro) of the same molecule?
A: Its CC50 is 3.82 µg/mL (≈ 12.3 µM).

Q: With CC(Nc1ncccc1[N+](=O)[O-])c1c(Cl)cccc1Cl (stereo not drawn) [compound 13] as the molecule, how does the “SI (selectivity index, ratio of CD50 to ED50)” value (HIV-1) read?
A: The value was 33.

Q: What about the EC50 (HIV-1) of the same molecule?
A: Its EC50 is 0.0073 µg/mL (≈ 0.0234 µM).

Q: What about the CC50 (in vitro) of the same molecule?
A: The CC50 was 0.24 µg/mL (≈ 0.769 µM).

Reference: US5541215A, “Heterocycle-substituted benzenemethanamine derivatives” (Janssen Pharmaceutica N.V., priority 1991, dated 1996)
